# From patent US20110086851A1, “SUBSTITUTED QUINAZOLINES AND THEIR USES FOR MYEOLOPROLIFIC AND THROMBOTIC DISEASES” (priority 2008, published 2011)
# Where a name gives a salt, the structure may show the parent alone.
# Tests used:
# [1] = molecular target: human phosphodiesterase III (PDE III); settings: cited from earlier work
# [2] = test system: human megakaryocytopoiesis; settings: cited from earlier work
# [3] = in vivo; cited from earlier work
# [4] = Pharmacokinetics in humans; type: in vivo, human; settings: after anagrelide treatment
# Description: The metabolism of anagrelide generally proceeds extremely rapidly, resulting in a less than ideal pharmacokinetic profile of the drug. […] This, combined with the side-effects profile, can lead to poor patient compliance. Furthermore, anagrelide undergoes a large first pass effect (>50%) leading to considerable intersubject variation in achieved exposures and, therefore, potentially variable drug response. Also, exposure to the pharmacologically active metabolite varies dramatically between patients since its formation is dependent on CYP1A, an enzyme whose expression is highly dependent on exposure to inducing agents such as cigarette smoke. Overall, this may result in the need for careful dose titration in patients being treated with anagrelide.
# [5] = test system: human phosphodiesterase III (PDE III); assay: PDE III inhibition; type: biochemical
# Description: In early volunteer trials, the most frequently reported adverse effects AEs other than headache were palpitations, postural dizziness and nausea. During patient studies, the most frequently reported drug-related AEs were headache, palpitations, oedema/fluid retention, nausea/vomiting, diarrhea, dizziness and abdominal pain. These effects are all likely to arise from the secondary, cardiovascular pharmacology associated with anagrelide resulting from its inhibitory effects on human phosphodiesterase III (PDE III). […] Inhibition of myocardial PDE III leads to positive inotropy (increasing of the force of contractions of the heart), increased chronotropy (increase in heart rate), and peripheral vasodilatation. Such cardiovascular manifestations of this inhibition are typically seen with the classical positive inotropes, milrinone and enoximone, and exploited in the short-term acute treatment of congestive heart failure. However, in the treatment of a so-called silent disease (i.e., asymptomatic) such as ET, the cardiovascular side-effects of palpitations and tachycardia associated with anagrelide limit its utility and a significant proportion of patients—reportedly between 25 and 50%—fail to tolerate the drug during long term treatment.
# [6] = test system: erythroid or myelomonocytic differentiation; settings: stimulated by erythropoietin or granulocyte-macrophage colony-stimulating factor; cited from earlier work
SMILES,IC50 [1] [nM],potency of inhibition of megakaryocytopoiesis relative to the parent drug [2],typical half-life [3] [h],exposure in vivo relative to the parent drug [4],potency as PDE III inhibitor relative to anagrelide [5],effect on erythroid or myelomonocytic differentiation [6],"IC50 ([2]; in vitro, dose-dependent, read-out: estimated IC50, inhibition of TPO-induced megakaryocytopoiesis) [nM]",first pass effect [3] [%]
Cc1[nH]c(=O)c(C#N)cc1-c1ccncc1 [milrinone],170 to 350,,,,,,,
O=C1NC2=Nc3ccc(Cl)c(Cl)c3CN2C1O (stereo not drawn) [3-hydroxyanagrelide],,no more potent than the parent drug,2.5,2-3 fold,over 40 fold,,,
"O=C1CN2Cc3c(ccc(Cl)c3Cl)N=C2N1 [Anagrelide, 6,7-dichloro-1,5-dihydroimidazo[2,1-b]-quinazolin-2(3H)-one hydrochloride monohydrate]",~29,,,,,does not affect,~26,> 50
